# Test results from patent US9931342B2, “Compositions and methods for the treatment of cancer” (Duke University, priority 2016, dated 2018).
# Legend:
# RAF-ERK pathway = assay: ERK activation, Western blot of 1833 breast cancer cell lysates; format: cell-based, human; conditions: 10 μM, 3 hours, 1833 cells
# Procedure: (§1) Cells were lysed in radio-immunoprecipitation assay buffer with protease and phosphatase inhibitors. Cell debris was removed by microcentrifugation, and protein was quantified. Alternatively, equal cell numbers were plated onto six-well plates, and 24 hours later, conditioned medium was harvested and concentrated using Amicon Ultra Centrifugal Filters (Millipore). Equal amounts of protein or conditioned medium were separated by SDS-polyacrylamide gel electrophoresis and transferred onto nitrocellulose membranes and probed with the indicated antibodies.
# TAZ = TAZ protein abundance, immunoblot of 1833 cells; format: cell-based, human; conditions: 20 μM, 24 hours
# Procedure: Control 1833 cells or 1833 cells expressing murine Ab12-E505K mutant protein were plated (3×10^5 cells per group) in six well plates. Cells were then treated with vehicle (DMSO) or GNF5 (20 μM) for 24 hours and immunoblotted with the indicated antibodies. n=3 blots.
# as §1
# 1833 breast cancer cells = assay: Breast cancer bone metastasis after intra-cardiac injection of 1833 cells in mice; format: in vivo
# Description: (A) Experimental design. (B) Survival of mice after intra-cardiac injection of 1833 (1×10^5) breast cancer cells and treatment with either dimethyl sulfoxide (DMSO) control or the allosteric ABL inhibitor GNF5. n=10 mice per group. (C) Bioluminescent images of representative mice at day 22 after inoculation. (D) Quantification of bone metastases. n=10 mice per group. (E and F) Representative H&E staining (E) and quantification (F) of H&E stained tumor area of bone lesions. Arrows indicate tumor. n=3 mice per group. Scale bar, 200 μm. (G and H) Representative x-ray and μCT reconstruction (G) of mouse tibias and quantification (H) of bone volume/total volume. n=3 mice per group.
# Procedures involving mice were approved and performed following the guidelines of the Institutional Animal Care and Use Committee (IACUC) of Duke University Division of Laboratory Animal Resources (DLAR). Age-matched female athymic NCr nu/nu mice (5 to 6 weeks old) were used for xenograft experiments. For intra-cardiac injections, cells were harvested from sub-confluent culture plates, washed with phosphate-buffered saline (PBS), and resuspended at 106/ml (1833) or 5×10^6/ml (SCP28) in PBS; 0.1 ml of the suspended cells was injected into the left cardiac ventricle using 30-gauge needles. Mice were anesthetized with isoflurane before injection and imaged by bioluminescence imaging. For intra-tibial injections, mice were anesthetized using a mixture of ketamine (100 mg/kg) and xylazine (10 mg/kg). The injection site was cleaned with a 70% alcohol wipe. Single-cell suspensions (1×10^5 cells) in a final volume of […] were injected into the upper half of the tibia medullary cavity, as felt by a lack of resistance when pushing cells into the cavity. Bioluminescence imaging was used to confirm successful cancer cell inoculation and progression of metastatic bone lesions. The allosteric inhibitor GNF5 was synthesized by the Duke University Small Molecule Synthesis Facility. For drug treatment, the mice were dosed daily with GNF5 in DMSO/peanut oil (1:9) at 50 mg/kg by intraperitoneal injection.
# Hind limb bones were excised, fixed in 10% neutral-buffered formalin, and imaged using a μCT scanner (SkyScan 1176, Bruker Corp.) at […] and 180° scanning with a rotation step of 0.7° per image, 242-ms exposure time, 55-kV photon energy, and […]. The images were reconstructed using NReconServer, and bone volume was analyzed by CT analysis software (CTAn, Bruker Corp.).
# Hind limb bones were excised, fixed in 10% neutral-buffered formalin, decalcified, and embedded in paraffin for H&E staining (Zhang et al., Cancer Cell, 2009).
# FH-deficient HLRCC = conditions: cited from earlier work
# [1] = 50 mg/kg daily i.p. starting day 8
SMILES,ERK activation (phospho-Erk) (RAF-ERK pathway),TAZ protein abundance (TAZ; 1833 cells expressing murine ABL2-E505K (GNF5-resistant mutant)),TAZ protein abundance (TAZ; control 1833 cells),"bone destruction (x-ray, μCT) (1833 breast cancer cells; [1])",bone tumor burden by histological analyses (H&E) (1833 breast cancer cells; [1]),"bone metastasis burden by bioluminescence imaging (1833 breast cancer cells; 50 mg/kg daily i.p. starting day 8, day 22 imaging)","ratio of bone volume to total volume (μCT) (1833 breast cancer cells; 50 mg/kg daily i.p. starting day 8, mouse tibias)",survival of tumor-bearing mice (1833 breast cancer cells; 50 mg/kg daily i.p. starting day 8 after intra-cardiac injection),cytotoxicity to FH-deficient HLRCC (FH-deficient HLRCC)
O=C(NCCO)c1cccc(-c2cc(Nc3ccc(OC(F)(F)F)cc3)ncn2)c1 [GNF5],does not activate,not decreased,decreased,decreased,decrease,decrease,increased,significant increase,–
Cc1ccc(NC(=O)c2ccc(CN3CCN(C)CC3)cc2)cc1Nc1nccc(-c2cccnc2)n1 [imatinib],promotes ERK activation,–,–,–,–,–,–,–,cytotoxic
COc1cc2c(Nc3ccc(Br)cc3F)ncnc2cc1OCC1CCN(C)CC1 [vandetanib],–,–,–,–,–,–,–,–,cytotoxic
